The values below are quoted from earlier work in patent US9314447B2 (Lupin Atlantis Holdings, S.A., priority 2012, dated 2016).

Structures are written as SMILES.

The conditions of the series: in vivo.

In the case of `CC(C)(Oc1ccc(C(=O)c2ccc(Cl)cc2)cc1)C(=O)O` [Fenofibric acid], the elimination half-life entry is listed as “about 20 hours”.
